In patent US12084436B2, “Heterocyclic compound” (Takeda Pharmaceutical Company Limited, priority 2019, dated 2024):

Molecular target: T1, HDAC6 enzyme (Homo sapiens, UniProt Q9UBN7)
T1 construct: prepared by transducing full length HDAC6 gene into Sf-9 insect cells; GST; purchased SignalChem; host or cells: Sf-9 insect cells
T1 sequence (Q9UBN7 1-1215): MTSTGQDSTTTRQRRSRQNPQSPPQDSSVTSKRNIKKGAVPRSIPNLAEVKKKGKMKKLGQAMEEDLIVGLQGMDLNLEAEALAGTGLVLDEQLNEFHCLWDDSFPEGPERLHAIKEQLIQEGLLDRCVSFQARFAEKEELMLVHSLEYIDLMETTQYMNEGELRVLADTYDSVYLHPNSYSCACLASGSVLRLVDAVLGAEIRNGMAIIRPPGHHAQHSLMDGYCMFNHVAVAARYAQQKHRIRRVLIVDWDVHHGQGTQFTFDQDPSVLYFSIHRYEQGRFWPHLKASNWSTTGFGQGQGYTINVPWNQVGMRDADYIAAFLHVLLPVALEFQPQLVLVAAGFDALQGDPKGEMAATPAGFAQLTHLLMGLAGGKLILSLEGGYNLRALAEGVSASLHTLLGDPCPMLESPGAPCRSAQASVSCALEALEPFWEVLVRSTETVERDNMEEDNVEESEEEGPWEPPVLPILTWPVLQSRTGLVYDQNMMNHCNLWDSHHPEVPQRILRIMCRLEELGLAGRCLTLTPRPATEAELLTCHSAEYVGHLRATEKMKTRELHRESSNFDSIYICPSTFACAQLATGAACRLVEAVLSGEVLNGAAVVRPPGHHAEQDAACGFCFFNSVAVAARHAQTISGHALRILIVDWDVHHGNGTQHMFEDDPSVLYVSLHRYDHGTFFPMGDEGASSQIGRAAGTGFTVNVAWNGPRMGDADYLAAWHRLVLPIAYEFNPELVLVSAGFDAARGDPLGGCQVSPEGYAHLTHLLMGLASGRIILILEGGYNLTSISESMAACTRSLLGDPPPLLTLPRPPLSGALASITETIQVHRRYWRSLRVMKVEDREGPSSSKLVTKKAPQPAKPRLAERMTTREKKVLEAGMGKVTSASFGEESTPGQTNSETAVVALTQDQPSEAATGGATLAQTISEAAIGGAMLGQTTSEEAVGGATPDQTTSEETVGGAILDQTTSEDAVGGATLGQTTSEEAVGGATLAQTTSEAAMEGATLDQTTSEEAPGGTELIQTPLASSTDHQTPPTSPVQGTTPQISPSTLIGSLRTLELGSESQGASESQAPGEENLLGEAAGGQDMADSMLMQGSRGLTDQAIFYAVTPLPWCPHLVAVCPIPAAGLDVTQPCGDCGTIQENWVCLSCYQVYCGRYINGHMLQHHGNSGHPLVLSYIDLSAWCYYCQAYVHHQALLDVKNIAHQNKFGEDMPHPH
Test: HDAC6 enzyme inhibitory assay (HDAC-Glo I/II Assay kit, luminescence)
Type: biochemical
Settings: 10 μM test compound; wells without enzyme = 100% inhibition; 10 µM
Procedure, shortened: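 Full-length human HDAC6, GST-purified from Sf-9 cells, was preincubated with compound for 60 min at room temperature in Tris-HCl pH 7.5 buffer with glutathione and Tween-20. Substrate-developer was then added, and luminescence was read after 20 min at room temperature. Inhibition was expressed relative to no-enzyme wells, taken as 100% inhibition.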

| HDAC6 inhibitory rate (%) (10 μM) | SMILES |
| --- | --- |
| 100 | CN1C(=O)c2cc(-c3nnc(C(F)F)o3)ccc2OC1(C)c1ccc(C#N)cc1 (single isomer, unassigned; isomer 2) [Example 37b, 4-{6-[5-(difluoromethyl)-1,3,4-oxadiazol-2-yl]-2,3-dimethyl-4-oxo-3,4-dihydro-2H-1,3-benzoxazin-2-yl}benzonitrile (optical isomer 2)] |
| 56 | CN1C(=O)c2cc(-c3nnc(C(F)F)o3)cnc2CC1(C)c1ccc(F)cc1 (single isomer, unassigned; isomer 1) [Example 27b, 3-[5-(difluoromethyl)-1,3,4-oxadiazol-2-yl]-7-(4-fluorophenyl)-6,7-dimethyl-7,8-dihydro-1,6-naphthyridin-5(6H)-one (optical isomer 1)] |
| 76 | CN1C(=O)c2cc(-c3nnc(C(F)F)o3)cnc2CC1(C)c1ccc(F)c(F)c1 (single isomer, unassigned; isomer 1) [Example 39b, 3-[5-(difluoromethyl)-1,3,4-oxadiazol-2-yl]-7-(3,4-difluorophenyl)-6,7-dimethyl-7,8-dihydro-1,6-naphthyridin-5(6H)-one (optical isomer 1)] |
| 100 | CN1C(=O)c2cc(-c3nnc(C(F)F)o3)cnc2CC1(C)c1ccc(F)c(F)c1 (single isomer, unassigned; isomer 2) [Example 40b, 3-[5-(difluoromethyl)-1,3,4-oxadiazol-2-yl]-7-(3,4-difluorophenyl)-6,7-dimethyl-7,8-dihydro-1,6-naphthyridin-5(6H)-one (optical isomer 2)] |

Same assay, conditions: 10 μM test compound; wells without enzyme = 100% inhibition; read-out: HDAC6 inhibitory rate (%) (10 μM)

| SMILES | inhibition at 10 µM [%] |
| --- | --- |
| Cn1ccc(OC2CCC(F)(F)CC2)c(-c2cc(-c3nnc(C(F)F)o3)ccn2)c1=O [Example 88a, 4′-[(4,4-difluorocyclohexyl)oxy]-4-[5-(difluoromethyl)-1,3,4-oxadiazol-2-yl]-1′-methyl[2,3′-bipyridine]-2′(1′H)-one] | 100 |
| CC(C)(C)OC(=O)N1CCC(Oc2cccnc2-c2cc(F)cc(-c3nnc(C(F)F)o3)c2)CC1 [Example 16a, tert-butyl 4-[(2-{3-[5-(difluoromethyl)-1,3,4-oxadiazol-2-yl]-5-fluorophenyl}pyridin-3-yl)oxy]piperidine-1-carboxylate] | 98 |
| FC(F)c1nnc(-c2ccnc(-c3nc(Cl)cn3Cc3ccccn3)c2)o1 [Example 39a, 2-{4-chloro-1-[(pyridin-2-yl)methyl]-1H-imidazol-2-yl}-4-[5-(difluoromethyl)-1,3,4-oxadiazol-2-yl]pyridine] | 98 |
| Fc1cc(-c2nnc(C(F)F)o2)cc(-c2nccn2CC2CCC(F)(F)CC2)c1 [Example 28a, 2-(3-{1-[(4,4-difluorocyclohexyl)methyl]-1H-imidazol-2-yl)-5-fluorophenyl)-5-(difluoromethyl)-1,3,4-oxadiazole] | 99 |
| O=C1c2cc(-c3nnc(C(F)F)o3)ccc2CN1Nc1ccc(F)c(Cl)c1 [Example 37c, 2-(3-chloro-4-fluoroanilino)-6-[5-(difluoromethyl)-1,3,4-oxadiazol-2-yl]-2,3-dihydro-1H-isoindol-1-one] | 99 |
| N#Cc1cccc(Cn2ccnc2-c2cc(-c3nnc(C(F)F)o3)ccn2)c1 [Example 72a, 3-[(2-{4-[5-(difluoromethyl)-1,3,4-oxadiazol-2-yl]pyridin-2-yl}-1H-imidazol-1-yl)methyl]benzonitrile] | 100 |

Results, then the compound that gave them:

| inhibition at 10 µM [%] | SMILES |
| --- | --- |
| 100 | O=C1NN(c2ccc(F)cc2)Cc2ccc(-c3nnc(C(F)F)o3)cc21 [Example 2b, 7-[5-(difluoromethyl)-1,3,4-oxadiazol-2-yl]-3-(4-fluorophenyl)-3,4-dihydrophthalazin-1(2H)-one] |
| 99 | O=C(OC1CCOC1)N(Cc1ccc(F)cc1)N1Cc2ccc(-c3nnc(C(F)F)o3)cc2C1=O (stereo not shown) [Example 26c, oxolan-3-yl {6-[5-(difluoromethyl)-1,3,4-oxadiazol-2-yl]-1-oxo-1,3-dihydro-2H-isoindol-2-yl}[(4-fluorophenyl)methyl]carbamate] |
| 100 | O=C(CC(F)(F)F)N(Cc1ccc(F)cc1)N1Cc2ccc(-c3nnc(C(F)F)o3)cc2C1=O [Example 14c, N-{6-[5-(difluoromethyl)-1,3,4-oxadiazol-2-yl]-1-oxo-1,3-dihydro-2H-isoindol-2-yl}-3,3,3-trifluoro-N-[(4-fluorophenyl)methyl]propanamide] |
| 100 | CN(Cc1cc(O)ccc1F)N1Cc2ccc(-c3nnc(C(F)F)o3)cc2C1=O [Example 49c, 6-[5-(difluoromethyl)-1,3,4-oxadiazol-2-yl]-2-{[(2-fluoro-5-hydroxyphenyl)methyl](methyl)amino}-2,3-dihydro-1H-isoindol-1-one] |
| 99 | CN(Cc1cccc(N2CCOCC2)c1)N1Cc2ccc(-c3nnc(C(F)F)o3)cc2C1=O [Example 61c, 6-[5-(difluoromethyl)-1,3,4-oxadiazol-2-yl]-2-(methyl{[3-(morpholin-4-yl)phenyl]methyl}amino)-2,3-dihydro-1H-isoindol-1-one] |
| 100 | CCN1C(=O)c2cc(-c3nnc(C(F)F)o3)ccc2CN1c1ccc(F)cc1 [Example 46b, 7-[5-(difluoromethyl)-1,3,4-oxadiazol-2-yl]-2-ethyl-3-(4-fluorophenyl)-3,4-dihydrophthalazin-1(2H)-one] |
| 99 | CN(Cc1ccc(C(F)F)cc1)N1Cc2ccc(-c3nnc(C(F)F)o3)cc2C1=O [Example 57c, 6-[5-(difluoromethyl)-1,3,4-oxadiazol-2-yl]-2-[{[4-(difluoromethyl)phenyl]methyl} (methyl)amino]-2,3-dihydro-1H-isoindol-1-one] |
| 100 | O=C(OCC(F)F)N(Cc1ccc(F)cc1)N1Cc2ccc(-c3nnc(C(F)F)o3)cc2C1=O [Example 16c, 2,2-difluoroethyl {6-[5-(difluoromethyl)-1,3,4-oxadiazol-2-yl]-1-oxo-1,3-dihydro-2H-isoindol-2-yl}[(4-fluorophenyl)methyl]carbamate] |
| 99 | O=C(OCC(F)F)N(Cc1cnn(C2CC2)c1)N1Cc2ccc(-c3nnc(C(F)F)o3)cc2C1=O [Example 13c, 2,2-difluoroethyl [(1-cyclopropyl-1H-pyrazol-4-yl)methyl]{6-[5-(difluoromethyl)-1,3,4-oxadiazol-2-yl]-1-oxo-1,3-dihydro-2H-isoindol-2-yl}carbamate] |
| 99 | O=C1c2cc(-c3nnc(C(F)F)o3)ccc2CN1N(Cc1ccc(F)cc1)CC1CCOCC1 [Example 2c, 6-[5-(difluoromethyl)-1,3,4-oxadiazol-2-yl]-2-{[(4-fluorophenyl)methyl][(oxan-4-yl)methyl]amino}-2,3-dihydro-1H-isoindol-1-one] |
| 99 | CN(CC1CC(F)(F)C1)N1Cc2ccc(-c3nnc(C(F)F)o3)cc2C1=O [Example 64c, 2-{[(3,3-difluorocyclobutyl)methyl] (methyl)amino}-6-[5-(difluoromethyl)-1,3,4-oxadiazol-2-yl]-2,3-dihydro-1H-isoindol-1-one] |
| 100 | CCN1C(=O)c2cc(-c3nnc(C(F)F)o3)ccc2OC1(C)c1ccc(F)cc1 (stereo not shown) [Example 45b, 6-[5-(difluoromethyl)-1,3,4-oxadiazol-2-yl]-3-ethyl-2-(4-fluorophenyl)-2-methyl-2,3-dihydro-4H-1,3-benzoxazin-4-one] |
